No end group written: not given here.
Legend:
VP6 45 kd capsid protein = experiment: Binding of 232-255 peptide to VP6 of purified virus (laddering on polyacrylamide gel electrophoresis)
Source text: Laddering occurred both at the VP6 monomeric molecular weight of 45 kd and at the aggregate molecular weights of 90 kd and 135 kd regions. The increment in the ladder steps matched the MW of the 232-255 peptide. Trypsin treatment of the virus/peptide complex reduced the ladder to a virus profile identical with that of the trypsin-treated virus. The ladder could be detected with antisera produced against the synthetic peptide.

trypsin = experiment: Trypsin susceptibility and competition with intact VP4 for trypsin; type: biochemical; conditions: for cleavage of VP4 by trypsin in presence of peptide: FIG. 8
Method: Susceptibility of the synthetic peptide to trypsin was confirmed by reaction with trypsin followed by electrophoresis. […] It was also established that the peptide could compete with intact VP4 for the enzyme. This was determined by measuring the ability of increasing concentrations of the synthetic peptide to reduce the amount of VP4 cleaved into the two products of molecular weight 60 kd and 28 kd.

[1] = tested on: infectious virus on MA104 cells; experiment: Plaque reduction by 232-255 peptide mixed with infectious virus on MA104 cells; type: cell-based; conditions: 100 pfu virus with 100 μg, 200 μg and 300 μg peptide
Method: In a protocol similar to a standard plaque reduction assay, MA104 cells were treated with 100 pfu of the virus in the absence of and in the presence of 100 μg, 200 μg and 300 μg of the 232-255 peptide.

BRV strain C486 = experiment: Prophylactic oral 232-255 peptide in neonatal mice before challenge; type: in vivo; parameters: key to Diarrheal Score: 0: no sign of diarrhea in live mice, or on necropsy; +: no external signs of diarrhea but semi-liquid colon contents at autopsy; ++: fluid was apparent on palpation of the abdomen and the colon was filled with liquid feces and gas; +++: the external anal region was soiled with feces and intestinal fluid was present on palpation; ++++: liquid feces were present around the anal region and on palpation of the abdomen intestinal fluid was present and oozed from the anus; severe dehydration, internal liquid content in colon and caecum and distention due to accumulation of gas; conditions: for Diarrheal Score: about one hour before 10^4 pfu; for Virus Titre: mouse intestines; for Plasma D-Xylose: no challenge: 119
Method: The 232-255 peptide synthesized in Example 7 was diluted serially in Eagle's Minimal Essential Medium. The peptide solutions of various dilutions were administered in 100 μl dosages to neonatal mice by oral administration. The pups were born of rotavirus-free strain CD-1 dams and administration was at 7 days of age (when the pups weigh about 4 g). Approximately one hour later the mice were challenged with 10^4 pfu of BRV strain C486. Clinical protection was scored as described in Example 6. Diarrhea was scored clinically as well as on necropsy, and plasma D-xylose was determined by administering 100 μl of 5% w/v D-xylose solution, sacrificing the mice two hours later, collecting the blood and determining plasma D-xylose concentration as described above. Virus titers were determined in the mouse intestines by suspending in MEM and homogenizing for virus titration. Mice which received no challenge had plasma D-xylose levels of 119 μg/100 μl and zero viral titers.

[2] = tested on: Monospecific anti-glycoprotein (VP7) serum; experiment: ELISA reactivity of synthetic peptides with monospecific anti-VP7 serum; type: binding; conditions: reciprocal of the dilution giving a 50% end point
Method: (§1) The reactivity and specificity of the synthetic peptides were determined by ELISA using either anti-VP7 monospecific VP7 serum or monoclonal antibodies specific for the various regions of VP7 and by adsorption blocking assays. […] As shown in the table, while all of the peptides were immunoreactive with the antiserum, only the peptides representing positions 247-259 and 275-295 were specifically immunoreactive with monoclonals directed to particular determinants.
(§2) ^a Antibody titers were determined by ELISA and are expressed as the
(§3) reciprocal of the dilution giving a 50% end point.

[3] = tested on: Monoclonal antibody 4B5-5; experiment: ELISA reactivity of synthetic peptides with monoclonal antibody 4B5-5; type: binding; conditions: reciprocal of the dilution giving a 50% end point
Method: as §1, §2, §3

[4] = tested on: Monoclonal antibody 11D10-4; experiment: ELISA reactivity of synthetic peptides with monoclonal antibody 11D10-4; type: binding; conditions: reciprocal of the dilution giving a 50% end point
Method: as §1, §2, §3

[5] = tested on: Monoclonal antibody 11D12-6; experiment: ELISA reactivity of synthetic peptides with monoclonal antibody 11D12-6; type: binding; conditions: reciprocal of the dilution giving a 50% end point
Method: as §1, §2, §3

[6] = tested on: Monoclonal antibody 10D207; experiment: ELISA reactivity of synthetic peptides with monoclonal antibody 10D207; type: binding; conditions: reciprocal of the dilution giving a 50% end point
Method: as §1, §2, §3

[7] = tested on: virus attachment to MA104 cells; experiment: Adsorption blocking assay: inhibition of attachment of virus to MA104 cells; type: cell-based; conditions: FIG. 5
Method: as §1

[8] = tested on: bovine rotavirus isolate C486; experiment: 50% plaque reduction assay on sera of mice immunized with KLH-conjugated VP7 peptides; type: in vivo, CD-1 mice; conditions: sera of mice given KLH-conjugated peptides; FIG. 7
Method: The sera obtained in Example 3 were tested for their ability to neutralize the infectivity of the bovine rotavirus isolate C486 using a standard 50% plaque reduction assay. In this assay, virus dilutions representing 30-50 PFU were mixed 1:1 with various dilutions of antibody and incubated for 1 hour at 37° C. Virus attachment to MA104 monolayers was allowed to proceed at 37° C. for 2 hours before the virus inoculum was removed; the cells were washed with MEM and then overlaid with 1.6% Bacto-agar (Difco) diluted in MEM and supple-mented with 5 μg of pancreatin per ml, 0.7% of a 1:1000 neutral red stock solution, and 0.1% DEAE-dextran. Plaques appeared after 5 to 6 days of incubation at 37° C.

NIAPASIVSRNIVYTRAQPNDIA [Peptide 232-255]
laddering of VP6 on polyacrylamide gel electrophoresis (VP6 45 kd capsid protein; 25 μg peptide with 2 μg purified virus): laddering was not apparent
laddering of VP6 on polyacrylamide gel electrophoresis (VP6 45 kd capsid protein; 100 μg peptide with 2 μg purified virus, 30 minutes at 37° C.): showed a laddering effect
cleavage of VP4 by trypsin in presence of peptide (trypsin; 25 μg (232-255)/25 μg VP4): complete cleavage of VP4
susceptibility of the peptide to trypsin (trypsin; reaction with trypsin followed by electrophoresis): cleaved by trypsin in a dose-dependent manner
cleavage of VP4 by trypsin in presence of peptide (trypsin; synthetic peptide increased to 200 μg): intact VP4 is evident
plaque reduction [1]: capable of plaque reduction in a dose-dependent manner
Diarrheal Score (BRV strain C486; 100 μg peptide oral): +++
Virus Titre (BRV strain C486; 100 μg peptide oral): 1.2 × 10^3 PFU/ml
Plasma D-Xylose (BRV strain C486; 100 μg peptide oral): 92 μg/100 μl
Diarrheal Score (BRV strain C486; 250 μg peptide oral): ++
Virus Titre (BRV strain C486; 250 μg peptide oral): 4.0 × 10^2 PFU/ml
Plasma D-Xylose (BRV strain C486; 250 μg peptide oral): 70 μg/100 μl
Diarrheal Score (BRV strain C486; 500 μg peptide oral): 0
Virus Titre (BRV strain C486; 500 μg peptide oral): 0 PFU/ml
Plasma D-Xylose (BRV strain C486; 500 μg peptide oral): 101 μg/100 μl
Diarrheal Score (BRV strain C486; 1000 μg peptide oral): 0
Virus Titre (BRV strain C486; 1000 μg peptide oral): 0 PFU/ml
Plasma D-Xylose (BRV strain C486; 1000 μg peptide oral): 112 μg/100 μl

YQQTDEANK [p174-183]
Antibody titer (ELISA), monospecific anti-glycoprotein (VP7) serum with synthetic peptide [2]: 2,500
Antibody titer (ELISA), monoclonal antibody 4B5-5 with synthetic peptide [3]: 50
Antibody titer (ELISA), monoclonal antibody 11D10-4 with synthetic peptide [4]: 10
Antibody titer (ELISA), monoclonal antibody 11D12-6 with synthetic peptide [5]: 10
Antibody titer (ELISA), monoclonal antibody 10D207 with synthetic peptide [6]: 10

RNCKKLGPRENVA [p247-259]
Antibody titer (ELISA), monospecific anti-glycoprotein (VP7) serum with synthetic peptide [2]: 1,000
Antibody titer (ELISA), monoclonal antibody 4B5-5 with synthetic peptide [3]: 5,000
Antibody titer (ELISA), monoclonal antibody 11D10-4 with synthetic peptide [4]: 4,000
Antibody titer (ELISA), monoclonal antibody 11D12-6 with synthetic peptide [5]: 100
Antibody titer (ELISA), monoclonal antibody 10D207 with synthetic peptide [6]: 20
ability to inhibit attachment of virus to MA104 cells [7]: able to block virus attachment
virus-neutralizing antibodies induced (50% plaque reduction assay) [8]: induced virus-neutralizing antibodies

Reference: patent publication US6086880A, “Rotavirus peptide compositions and methods of use” (The University of Saskatchewan, priority 1993, dated 2000)
